Reference: patent publication US20200178542A9, “CONTROL OF PESTS IN COTTON BY G[…] BILOBALIDES” (priority 2015, published 2020)
Like-named read-outs stand apart in the source and are kept apart here.

Assays:
Euschistus heros = experiment: Spray of cotton seedlings, infestation with adults of Euschistus heros, alive insects and Abbott relative efficacy (Example-2, Example-3); type: in vivo; conditions: for Relative Efficacy 1DAI / Relative Efficacy 3DAI: Abbott's formula; for No of alive insects 1DAI / No of alive insects 3DAI: ten adults per plant, mean of 4 replicates
Description: Relative efficacy (E) values were calculated according to Abbot's formula
C is the number of alive insects in untreated controls, and G is the number of alive insects in plants treated with components of the ginkgo tree.
Fibermax™ LibertyLink™ cotton, and Bollgard II™ cotton seedlings were sprayed with 2 ml of compositions comprising either no component of the ginkgo tree, or bilobalide at a concentration of 150 ppm, or 100 ppm. Plants were allowed to dry and subsequently infested with ten adults of Euschistus heros. Four replicate measurement on different plants were made for each measurement. One day after infestation (1 DAI), and three days after infestation (3 DAI) the number of live and dead insects was determined. The mean number of alive insects, as well as the relative efficacy values (E) according to Abbott's formula were gathered in Table E, wherein the number of alive insects in untreated controls (C) was the value of the same plant without the application of bilobalide.
The experiment as described in Example-2 was repeated with ginkgolide A in a concentration of 250 ppm. […] The mean number of alive insects, as well as the relative efficacy values (E) according to Abbott's formula were gathered in Table F, wherein the number of alive insects in untreated controls (C) was the value of the same plant without the application of ginkgolide A.

Nezara viridula = experiment: Foliar spray of cotton plants, infestation with Nezara viridula, mortality after three days (Example-1); type: in vivo; conditions: for mortality at 100 ppm: Nezara viridula, foliar, 72 h
Description: Cotton plants were grown to growth stage BBCH 12. The cotton plants were then sprayed with 300 l/ha of aqueous compositions comprising either no component of the ginkgo tree, 300 ppm of ginkgolide A, or 100 ppm of bilobalide. The plants were then infested with five insects (either adult, or 4th instar nymphs) of Nezara viridula insects. Insects were contained on the plant using mesh organza bags. Three replicate measurement on different plants were made for each measurement. Three days after infestation, the number of live and dead insects was determined. The mean mortality values were gathered in Table D.

[1] = Fibermax LibertyLink cotton, 250 ppm
[2] = Fibermax LibertyLink cotton, 100 ppm
[3] = Fibermax LibertyLink cotton, 150 ppm

C[C@@H]1C(=O)O[C@H]2C[C@@]34[C@H]5C[C@@H](C(C)(C)C)[C@]36[C@@H](OC(=O)[C@@H]6O)O[C@@]4(C(=O)O5)[C@]21O [Ginkgolide A]
Relative Efficacy 1DAI (Euschistus heros; Bollgard II cotton, 250 ppm): 5% | No of alive insects 1DAI (Euschistus heros; Bollgard II cotton, 250 ppm): 9.5 | Relative Efficacy 3DAI (Euschistus heros; Bollgard II cotton, 250 ppm): 33% | No of alive insects 3DAI (Euschistus heros; Bollgard II cotton, 250 ppm): 6.8 | Relative Efficacy 1DAI (Euschistus heros; [1]): 0% | No of alive insects 1DAI (Euschistus heros; [1]): 10.0 | Relative Efficacy 3DAI (Euschistus heros; [1]): 5% | No of alive insects 3DAI (Euschistus heros; [1]): 9.5 | Mortality of 4th instar nymphs (Nezara viridula; N. viridula 4th instar nymphs on cotton (BBCH 12), 300 ppm, 300 l/ha spray, three days after infestation, mean of 3 replicates): 78.6% | Mortality of Adults (Nezara viridula; N. viridula adults on cotton (BBCH 12), 300 ppm, 300 l/ha spray, three days after infestation, mean of 3 replicates): 93.3%

CC(C)(C)[C@]1(O)C[C@@H]2OC(=O)C[C@@]23C(=O)O[C@@H]2OC(=O)[C@H](O)[C@]213 [Bilobalide, (3aS,5aR,8aS,9R,10aR)-9-tert-butyl-8,9-dihydroxydihydro-9H-furo[2,3-b]furo[3′,2′; 2,3]cyclopenta[1,2-c]furan-2,4,7(3H,8H)-trione]
Relative Efficacy 1DAI (Euschistus heros; Bollgard II cotton, 100 ppm): 78% | No of alive insects 1DAI (Euschistus heros; Bollgard II cotton, 100 ppm): 2.3 | Relative Efficacy 3DAI (Euschistus heros; Bollgard II cotton, 100 ppm): 98% | No of alive insects 3DAI (Euschistus heros; Bollgard II cotton, 100 ppm): 0.3 | Relative Efficacy 1DAI (Euschistus heros; Bollgard II cotton, 150 ppm): 75% | No of alive insects 1DAI (Euschistus heros; Bollgard II cotton, 150 ppm): 2.5 | Relative Efficacy 3DAI (Euschistus heros; Bollgard II cotton, 150 ppm): 100% | No of alive insects 3DAI (Euschistus heros; Bollgard II cotton, 150 ppm): 0.0 | Relative Efficacy 1DAI (Euschistus heros; [2]): 68% | No of alive insects 1DAI (Euschistus heros; [2]): 3.3 | Relative Efficacy 3DAI (Euschistus heros; [2]): 98% | No of alive insects 3DAI (Euschistus heros; [2]): 0.3 | Relative Efficacy 1DAI (Euschistus heros; [3]): 70% | No of alive insects 1DAI (Euschistus heros; [3]): 3.0 | Relative Efficacy 3DAI (Euschistus heros; [3]): 100% | No of alive insects 3DAI (Euschistus heros; [3]): 0.0 | mortality at 100 ppm (Nezara viridula; read-out: Mortality of 4th instar nymphs): 92.9% | mortality at 100 ppm (Nezara viridula; read-out: Mortality of Adults): 53.3%
